Like-named read-outs stand apart in the source and are kept apart here.
Molecular target: Human TAAR 1 (Homo sapiens, UniProt Q96RJ0)
Experiment: cAMP Biotrak EIA functional assay in HEK293 cells stably expressing hTAAR1
Format: cell-based
Settings: for Emax: HEK293, read-out: Max (maximal response as percentage of the maximal cAMP levels induced by p-TYR)
[1] = cAMP production in HEK293 cells stably expressing human TAAR 1 (chimera with rat TAAR 1 N-/C-terminus and 3rd intracellular loop, HA leader), means of at least three independent experiments

Human TAAR 1, sequence (Q96RJ0 with tags, fused parts or gaps): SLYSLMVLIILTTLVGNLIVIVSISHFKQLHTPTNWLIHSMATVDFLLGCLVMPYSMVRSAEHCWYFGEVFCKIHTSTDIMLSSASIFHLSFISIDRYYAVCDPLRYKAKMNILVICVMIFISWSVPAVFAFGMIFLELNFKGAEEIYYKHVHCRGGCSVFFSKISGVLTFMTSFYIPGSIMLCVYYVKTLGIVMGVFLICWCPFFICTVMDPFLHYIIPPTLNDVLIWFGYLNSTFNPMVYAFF
Human TAAR 1, sequence (Q923Y9 with tags, fused parts or gaps partner): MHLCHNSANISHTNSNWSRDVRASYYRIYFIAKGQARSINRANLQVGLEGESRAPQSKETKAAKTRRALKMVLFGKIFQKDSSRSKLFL

Row | SMILES | EC50 [nM] | Max (maximal response as percentage of the maximal cAMP levels induced by p-TYR) [%] | Emax [%] | EC50 [1] [nM]
1 | NCCc1ccc(O)cc1 [p-TYR, p-tyramine] | 1070 | 100 |  | 
2 | NCCc1c[nH]c2ccccc12 [TRY, tryptamine] |  |  | 100 | 46900
3 | NC[C@H](O)c1ccc(O)c(O)c1 [Norepinephrine, norepinephrine] |  |  |  | > 50000
4 | NCCc1c[nH]c2ccc(O)cc12 [Serotonin, 5-HT, Serotonin] |  |  |  | > 50000
5 | CNCCc1ccccc1 [N-methyl-β-PEA] |  | 100 |  | 160
6 | NCCc1c[nH]cn1 [Histamine, histamine] |  |  |  | > 50000
7 | CNCCc1ccc(O)cc1 [N-methyl-p-tyramine] |  | 100 |  | 2050
8 | NCCc1ccccc1 [β-PEA, β-phenylethylamine] |  |  | 100 | 300
9 | NCCc1ccc(O)c(O)c1 [Dopamine, dopamine] |  |  | 50 | 
10 | NCC(O)c1ccc(O)cc1 (stereo not shown) [OCT, octopamine] |  |  | 100 | 10300

Source: patent publication US20060009441A1, “Human trace amine associated receptors” (priority 2004, published 2006)
